Measured values: article PMC11595612, “Phytochemical Investigation and Biological Activities of Desmodium heterocarpon Extract as Anti-Tyrosinase: Isolation of Natural Compounds, In Vitro and In Silico Study” (Life, 2024)
Converted amounts (≈) assume the structure as drawn. Where two headings read alike, the source gives them in different places.

How the values were obtained:
[1] = test system: Candida albicans (TISTR 5779); assay: MIC/MFC by micro-dilution method; details: for MFC / MIC: Candida albicans, TISTR5779
Trichophyton rubrum = assay: MIC/MFC by micro-dilution method; details: for MFC / MIC: Trichophyton rubrum
[2] = test system: Trichophyton mentagrophytes; assay: MIC/MFC by micro-dilution method; details: for MFC / MIC: Trichophyton mentagrophytes
[3] = test system: Staphylococcus aureus (ATTC 25923); assay: MIC/MBC by micro-dilution method
[4] = test system: Propionibacterium acnes (DMST 14916); assay: MIC/MBC by micro-dilution method; details: Cutibacterium acnes
Microsporum gypseum = assay: MIC/MFC by micro-dilution method; details: for MFC / MIC: Nannizzia gypsea
tyrosinase [5] = details: previous study, read-out: IC50, anti-tyrosinase activity, cited from earlier work
[6] = test system: Escherichia coli ATCC35218; assay: MIC/MBC by micro-dilution method
[7] = test system: Pseudomonas aeruginosa ATCC10145; assay: MIC/MBC by micro-dilution method
[8] = test system: Staphylococcus epidermidis (TISTR 517); assay: MIC/MBC by micro-dilution method; details: TISTR517
tyrosinase [9] = details: cited from earlier work
[10] = test system: P. aeruginosa, Klebsiella pneumoniae, E. coli, Salmonella typhimurium, and S. aureus; details: at a concentration of 315 ± 0.04 µg/mL; cited from earlier work
[11] = test system: A. fumigatus, A. flavus, A. niger, and tested Chrysosporium species; design: method as in earlier work; details: at 30 mg/mL; isolated from fruit extract of Flacourtia inermis Roxb; cited from earlier work
[12] = test system: Candida albicans, Microsporum gypseum, Trichophyton rubrum, and T. mentagrophytes; assay: MIC/MFC by micro-dilution, summary over yeast and filamentous fungi (abstract); assay type: cell-based; details: C. albicans, M. gypseum
[13] = test system: MRSA, S. epidermidis, Propionibacterium acnes, Escherichia coli, and Pseudomonas aeruginosa; assay: MIC/MBC by micro-dilution, summary over bacteria (abstract)
[14] = test system: Rhizopus stolonifer and Botrytis; design: method as in doi:10.1016/S0925-5214(96)00031-2; details: at a dosage of 5 mM; cited from earlier work
[15] = test system: B. aureus, L. monocytogenes, and E. coli; design: method as in doi:10.17221/132/2010-CJFS; details: cited from earlier work

Structure (SMILES)	MIC (Trichophyton rubrum)	MIC [1]	MIC [2]	MIC ([3]; Staphylococcus aureus)	MIC [4]	MIC (Microsporum gypseum)	MIC [6]	MIC [7]	MIC [8]	MFC (Trichophyton rubrum)	MFC [1]	MFC [2]	MBC ([3]; Staphylococcus aureus)	MBC [4]	MFC (Microsporum gypseum)	MBC [6]	MBC [7]	MBC [8]	also measured
C[C@@H]1[C@H](O)[C@@H](C)/C=C/C=C/C=C/C=C/C=C/C=C/C=C/[C@H](O[C@@H]2O[C@H](C)[C@@H](O)[C@H](N)[C@@H]2O)C[C@@H]2O[C@](O)(C[C@@H](O)C[C@@H](O)[C@H](O)CC[C@@H](O)C[C@@H](O)CC(=O)O[C@H]1C)C[C@H](O)[C@H]2C(=O)O [amphotericin B, reference compound]	–	–	–	–	–	–	–	–	–	–	–	–	–	–	–	–	–	–	Antibiotic * (positive control value; MIC/MFC not specified) ([1]; C. albicans): 0.5
CCCCCCCCCCCCCCCC(=O)O [compound 2, hexadecanoic acid]	> 100 µg/mL	> 100 µg/mL	> 100 µg/mL	> 100 µg/mL	> 100 µg/mL	> 100 µg/mL	> 100 µg/mL	> 100 µg/mL	> 100 µg/mL	> 100 µg/mL	> 100 µg/mL	> 100 µg/mL	> 100 µg/mL	> 100 µg/mL	> 100 µg/mL	> 100 µg/mL	> 100 µg/mL	> 100 µg/mL	–
O=C(O)c1ccccc1O [compound 3, salicylic acid]	–	–	–	–	–	–	–	–	–	–	–	–	–	–	–	–	–	–	type of inhibition (Lineweaver–Burk plots) (tyrosinase [9]): non-competitive inhibitor
CC[C@H](CC[C@@H](C)[C@H]1CC[C@H]2[C@@H]3CC=C4C[C@@H](O[C@@H]5O[C@H](CO)[C@@H](O)[C@H](O)[C@H]5O)CC[C@]4(C)[C@H]3CC[C@]12C)C(C)C [compound 4, β-sitosterol-D-glucoside]	> 100 µg/mL	> 100 µg/mL	> 100 µg/mL	> 100 µg/mL	> 100 µg/mL	> 100 µg/mL	> 100 µg/mL	> 100 µg/mL	> 100 µg/mL	> 100 µg/mL	> 100 µg/mL	> 100 µg/mL	> 100 µg/mL	> 100 µg/mL	> 100 µg/mL	> 100 µg/mL	> 100 µg/mL	> 100 µg/mL	–
CC(=O)N1CCN(c2ccc(OCC3COC(Cn4ccnc4)(c4ccc(Cl)cc4Cl)O3)cc2)CC1 (centres unmarked) [ketoconazole, reference compound]	–	–	–	–	–	–	–	–	–	–	–	–	–	–	–	–	–	–	Antibiotic * (positive control value; MIC/MFC not specified) (Trichophyton rubrum; T. rubrum): 0.25; Antibiotic * (positive control value; MIC/MFC not specified) ([2]; T. mentagrophytes): 0.25; Antibiotic * (positive control value; MIC/MFC not specified) (Microsporum gypseum; M. gypseum): 0.25

Continued, in another order:

MIC (Trichophyton rubrum)	MIC [1]	MIC [2]	MIC ([3]; Staphylococcus aureus)	MIC [4]	MIC (Microsporum gypseum)	MIC [6]	MIC [7]	MIC [8]	Structure (SMILES)	MFC (Trichophyton rubrum)	MFC [1]	MFC [2]	MBC ([3]; Staphylococcus aureus)	MBC [4]	MFC (Microsporum gypseum)	MBC [6]	MBC [7]	MBC [8]	also measured
> 100 µg/mL	> 100 µg/mL	> 100 µg/mL	> 100 µg/mL	> 100 µg/mL	> 100 µg/mL	> 100 µg/mL	> 100 µg/mL	> 100 µg/mL	O=c1c(-c2ccc(O)cc2)coc2cc(O)cc(O)c12 [compound 1, genistein]	> 100 µg/mL	> 100 µg/mL	> 100 µg/mL	> 100 µg/mL	> 100 µg/mL	> 100 µg/mL	> 100 µg/mL	> 100 µg/mL	> 100 µg/mL	IC50 (tyrosinase [5]; ref 40): 363 µM; IC50 (tyrosinase [5]; ref 41): 822 µM
10 µg/mL (≈ 64.9 µM)	10 µg/mL (≈ 64.9 µM)	10 µg/mL (≈ 64.9 µM)	15 µg/mL (≈ 97.3 µM)	15 µg/mL (≈ 97.3 µM)	10 µg/mL (≈ 64.9 µM)	15 µg/mL (≈ 97.3 µM)	15 µg/mL (≈ 97.3 µM)	15 µg/mL (≈ 97.3 µM)	O=C(O)c1cccc(O)c1O [compound 5, 2,3-dihydroxybenzoic acid]	10 µg/mL (≈ 64.9 µM)	15 µg/mL (≈ 97.3 µM)	10 µg/mL (≈ 64.9 µM)	15 µg/mL (≈ 97.3 µM)	20 µg/mL (≈ 130 µM)	10 µg/mL (≈ 64.9 µM)	15 µg/mL (≈ 97.3 µM)	20 µg/mL (≈ 130 µM)	15 µg/mL (≈ 97.3 µM)	growth of bacteria [10]: inhibited the growth; antifungal action [11]: preventing the growth
15 µg/mL (≈ 97.3 µM)	15 µg/mL (≈ 97.3 µM)	15 µg/mL (≈ 97.3 µM)	5 µg/mL (≈ 32.4 µM)	30 µg/mL (≈ 195 µM)	15 µg/mL (≈ 97.3 µM)	20 µg/mL (≈ 130 µM)	20 µg/mL (≈ 130 µM)	15 µg/mL (≈ 97.3 µM)	O=C(O)c1cc(O)ccc1O [compound 6, 2,5-dihydroxybenzoic acid]	15 µg/mL (≈ 97.3 µM)	15 µg/mL (≈ 97.3 µM)	15 µg/mL (≈ 97.3 µM)	5 µg/mL (≈ 32.4 µM)	40 µg/mL (≈ 260 µM)	15 µg/mL (≈ 97.3 µM)	35 µg/mL (≈ 227 µM)	35 µg/mL (≈ 227 µM)	15 µg/mL (≈ 97.3 µM)	MFC [12]: 15 µg/mL (≈ 97.3 µM); MIC [12]: 15 µg/mL (≈ 97.3 µM); MBC [13]: 15 to 40 µg/mL (≈ 97.3 to 260 µM); MIC [13]: 15 to 30 µg/mL (≈ 97.3 to 195 µM); spore germination [14]: inhibited; MIC [15]: 2500 µM (≈ 385 µg/mL); MBC ([3]; S. aureus): 5 µg/mL (≈ 32.4 µM); MIC ([3]; S. aureus): 5 µg/mL (≈ 32.4 µM)
